# According to patent US5770595A, “Oxime substituted therapeutic compounds” (Cell Therapeutics, Inc., priority 1994, dated 1998):
# Key:
# [1] = U.S. Pat. Nos. 4,515,795 and 4,576,947; cited from earlier work
# [2] = system: polymorphonuclear leukocytes; details: in response to a stimulator of chemotaxis; U.S. Pat. No. 4,636,507; cited from earlier work
# murine thymocyte = test: thymocyte proliferation stimulated by ConA and IL-2; assay type: cell-based, murine (female Balb/C mice); details: ConA, IL-2 15 U/ml; FIG. 18 (IC50 curve)
# Experimental: A thymocyte costimulator assay is conducted to evaluate the inventive compounds to inhibit activation and proliferation of thymocytes caused by stimulation with Con A and interleukin-1 (IL-1), or […]. Thymuses are obtained from mice (e.g., female Balb/C mice) and the thymuses are removed and dissociated into culture media (e.g., RPMI 1640 without serum supplementation). The dissociated thymus tissue and cell suspension is transferred to centrifuge tubes and allowed to settle, washed with HBSS and resuspended in serum-supplemented culture media (e.g., RPMI 1640 with 10% fetal calf serum). Any contaminating red cells are lysed, and viable cells are resuspended and counted. Thymocytes are plated (e.g., 96-well plates at a density of 2×10^5 cells/well) and a stimulating agent, such as Con A, IL-1 (e.g., IL-1α) or IL-2 is added to the well. The cells are incubated for 4 days at 37° C. On the fourth day, the cells are pulsed with tritiated thymidine and cell proliferation determined. […]
# 1522 on inhibition of thymocyte proliferation stimulated by ConA and interleukin-2 (IL-2) (20 ng/ml). Compound no. […]
# Thymuses, obtained from normal, female Balb/C mice, were dissociated and plated into 96-well plates at a density of 2×10^5 cells/well. […] The amount of tritiated thymidine dye incorporated by the harvested cells was determined in a liquid scintillation counter. […]
# [3] = system: PBMC (peripheral blood mononuclear cells); test: two-way mixed lymphocyte reaction; assay type: cell-based, human; details: Example 28; protocol similar to Example 10
# Excerpt: Various in vitro assays can be used to measure effects of the inventive compounds to module immune activity and have antitumor activity using a variety of cellular types. For example, a mixed lymphocyte reaction (MLR) provides a valuable screening tool to determine biological activity of each inventive compound. In the MLR, PBMCs (peripheral blood mononuclear cells) are obtained by drawing whole blood from healthy volunteers in a heparinized container and diluted with an equal volume of hanks balanced salt solution (HBSS). This mixture is layered on a sucrose density gradient, such as a Ficoll-Hypaque® gradient (specific gravity 1.08), and centrifuged at 1000×g for 25 minutes at room temperature or cooler. PBMC are obtained from a band at a plasma-Ficoll interface, separated and washed at least twice in a saline solution, such as HBSS. Contaminating red cells are lysed, such as by ACK lysis for 10 min at 37° C., and the PBMCs are washed twice in HBSS. The pellet of purified PBMCs is resuspended in complete medium, such as RPMI 1640 plus 20% human inactivated serum. Proliferative response of PBMC to allogeneic stimulation is determined in a two-way MLR performed in a 96-well microtiter plate. Briefly, approximately 10^5 test purified PBMC cells in 200 μl complete medium are co-cultured with approximately 10^5 autologous (control culture) or allogeneic (stimulated culture) PBMC cells, wherein the allogeneic cells are from HLA disparate individuals. Varying doses of compounds (drug) are added at the time of addition of cells to the microtiter plate. The cultures are incubated for 6 days at 37° C. in a 5% CO2 atmosphere. At the conclusion of the incubation tritiated thymidine is added (for example, 1 μCi/well of 40 to 60 Ci/mmole) and proliferation determined by liquid scintillation. counting.
# Example 10 illustrates a mixed lymphocyte reaction of inventive compounds nos. 1521 and 1522 (see above for chemical name and structure). […] Both compounds nos. […]
# ICAM in HUVEC cells = test: cell surface expression of ICAM in HUVEC; assay type: cell-based; details: human TNF-α 20 ng/ml, 20 hours
# Experimental: 2525 to inhibit cell surface expression of ICAM in HUVEC cells. The cells were stimulated with human TNF-α (20 ng/ml) for 20 hours and then stained for immunofluorescence using a monoclonal antibody recognizing ICAM, followed by a goat anti-mouse antibody conjugated to phycoerythrin. The cells were analyzed for antibody binding using flow cytometry. FIG. 16 reports % surface expression, determined by analysis of mean fluorescence intensity of cells analyzed by flow cytometry, for compound no. 2525, at concentration shown. As reported, compound no.
# [4] = system: THP-1 cells / TNFα-activated HUVEC; test: THP-1 cell adhesion to TNFα-activated HUVEC; assay type: cell-based, human; details: 0.1 to 10 μM
# Excerpt: This example illustrates inhibitive activity of inventive compound no. 2525 on THP-1 cell adhesion to TNFα-activated HUVEC. In an investigative assay, representative of the protocol employed in Example 23, HUVEC were stimulated with TNF α instead of IL-1β. As shown by results reported in FIG. 15, non-stimulated background adherence was approximately 1000 relative units, increasing to approximately 3000 under TNF stimulation.
# [5] = system: THP-1 cells / IL-1β-activated HUVEC; test: THP-1 cell adhesion to IL-1β-activated HUVEC; assay type: cell-based, human; details: IL-1β 10 ng/ml, 8 hours; between 1.0 and 10 μM
# Experimental: This example illustrates inhibitive activity of inventive compound no. 2525 on THP-1 cell adhesion to IL-1β-activated HUVEC. In an investigative assay, HUVEC were stimulated with IL-1β (10 ng/ml), both in the absence and presence of varying concentrations of inventive compound for 8 hours in a 96-well microtiter plate. In the wellplate, human monocytic leukemia cell line THP-1 cells were added at 50,000 cells per well. The THP-1 cells were pre-incubated with BCECF, a fluorescence dye that can be use to measure cell number using a fluorescence plate reader. After 10 minutes at 37° C., the microtiter plate was inverted and spun at 900 rpm. The remaining adhering THP-1 cells were then analyzed. […] The inventive compound no.
# VCAM in HUVEC cells = test: cell surface expression of VCAM in HUVEC; assay type: cell-based, human; details: protocol similar to Example 20; FIG. 17
# Experimental: Drug inhibitory activity can also be measured by determining levels of vascular cell adhesion molecule (VCAM) in stimulated cells. Early passage human umbilical vein endothelial cells (HUVEC) (obtained from commercial suppliers such as Cell Systems, Inc. or Clonetics) are cultured in media (e.g., Hepes buffered media, Cell Systems) containing 10% fetal bovine serum, and supplemented with a stimulating agent, such as fibroblast growth factor (acidic FGF, Cell Systems, Inc.) or TNF. The cells are plated into wells of a microtiter plate (e.g., 5×10^4 per well) and allowed to incubate at 37° C. for 72 hrs. The resting cells are removed (e.g., 20-30 min treatment with 0.4% EDTA), washed in media (e.g., phosphate buffered saline plus 0.1% bovine serum albumin with 0.01% sodium azide) and labeled on ice with a monoclonal antibody ("first antibody") recognizing human VCAM (e.g., 1 μg of a murine monoclonal antibody recognizing human VCAM, Genzyme). After 60 min on ice, the cells are washed (preferably twice) with cold wash media and incubated with an antibody that recognizes the first antibody (e.g., 1 μg of goat anti-mouse IgG conjugated with phycoerythrin, CalTag, Inc.). After 30 min on ice, the cells are washed twice and analyzed on a flow cytometer (Coulter Elite®) at appropriate emission and excitation wavelengths (e.g., for phycoerytlrin use excitation at 488 nm and emission at 525 nm).
# The cells were stimulated with human TNF-α (20 ng/ml) for 20 hours and then stained for immunofluorescence using a monoclonal antibody recognizing VCAM, followed by a goat anti-mouse antibody conjugated to phycoerythrin. The cells were analyzed for antibody binding using flow cytometry. […] 1521 and 1522 at the indicated drug concentrations.
# This example was used to investigate inhibition of vascular cell adhesion molecule (VCAM) expression on HUVEC by inventive compound no. 2525. VCAM expression by endothelial cells is an early event in atherogenesis and multiple sclerosis, among other various autoimmune diseases. FIG. 17, a plot of percent surface expression versus concentration of compound no.
compound,measurement,setting,value
"CC(O)CCCCn1c(=O)c2c(ncn2C)n(C)c1=O (centres unmarked) [M1, 1-(5-hydroxyhexyl)-3,7-dimethylxanthine]",cerebral blood flow,[1],increasing cerebral blood flow
same,stimulation of chemotaxis in polymorphonuclear leukocytes,[2],stimulate chemotaxis in polymorphonuclear leukocytes
CC(CCCCCCCCCn1c(=O)c2c(ncn2C)n(C)c1=O)=NO [compound 2514],"inhibition of thymocyte proliferation, ConA + IL-2",murine thymocyte,inhibit thymocyte proliferation and activation
same,proliferative response of lymphocytes in mixed lymphocyte reaction,[3],showed activity in this immune modulating activity assay procedure
CC(CCCCCCCCCCn1c(=O)c2c(ncn2C)n(C)c1=O)=NO [compound 2525],inhibition of ICAM surface expression,ICAM in HUVEC cells,inhibited ICAM surface expression
same,inhibition of THP-1 adhesion to TNFα-activated HUVEC,[4],significantly inhibited THP-1 adhesion
same,inhibition of THP-1 adhesion to IL-1β-activated HUVEC,[5],significantly inhibited THP-1 adhesion
same,inhibition of VCAM surface expression,VCAM in HUVEC cells,able to inhibit surface expression of VCAM
